This is an account of results in US20250188080A1, “IMIDAZOLONYLQUINOLINE COMPOUNDS AND THERAPEUTIC USES THEREOF” (Merck Patent GmbH, priority 2019, published 2025).

In data set [1] the target is T1, human ATR/ATRIP (Homo sapiens, UniProt Q13535).
T1 construct: human ATR, full length, GenBank ID: NM_001184.3; host or cells: mammalian cell line (ATR/ATRIP co-expressed); Sf21 insect cells (p53)
The data set is described as follows: ATR/ATRIP kinase assay. The class given is biochemical. The method, then:
The IC50 value was determined by an ATR/ATRIP enzymatic assay. The assay comprises two steps: the enzymatic reaction and the detection step. First, a mixture of ATR/ATRIP protein (Ataxia Telangiectasia and Rad3-related protein/ATR interacting protein), the compound in question at different concentrations, p53 as substrate protein and adenosine triphosphate (ATP) are incubated in assay buffer. ATR phosphorylates p53 at Ser15 and other residues. The amount of phosphorylated p53 is then detected using specific antibodies and the TR-FRET assay technology.
In detail: The ATR/ATRIP enzymatic assay is performed as a TR-FRET-(HTRF™, Cisbio Bioassays) based 384-well assay. In a first step, purified human recombinant ATR/ATRIP (human ATR, full length, GenBank ID: NM_001184.3, and human ATRIP, full length, GenBank ID AF451323.1, co-expressed in a mammalian cell line) is incubated in assay buffer for 15 minutes at 22° C. with test compound at different concentrations or without test compound (as a negative control). The assay buffer contains 25 mM HEPES pH 8.0, 10 mM Mg(CH3COO)2, 1 mM MnCl2, 0.1% BSA, 0.01% Brij® 35, and 5 mM dithiothreitol (DTT). […] The generation of phosphorylated p53 as a result of the ATR mediated reaction in the presence of ATP is detected by using specific antibodies [labeled with the fluorophores europium (Eu) as donor and d2 as acceptor (Cisbio Bioassays)] enabling FRET. […] Following signal development for 2 h the plates are analyzed in an EnVision (PerkinElmer) microplate reader using the TRF mode with laser excitation. Upon excitation of the donor europium at 340 nm the emitted fluorescence light of the acceptor d2 at 665 nm as well as from the donor Eu at 615 nm are measured. The amount of phosphorylated p53 is directly proportional to the ratio of the amounts of emitted light i.e. the ratio of the relative fluorescence units (rfu) at 665 nm and 615 nm. […] In particular, IC50 values are determined in the usual manner by fitting a dose-response curve to the data points using nonlinear regression analysis.

Data set [2] has as its system pDNA-PK (Cellular mechanistic DNA-PK, HCT-116). Description: pDNA-PK cellular assay. The following applies: HCT-116, 10 μM bleomycin. The class given is cell-based, human. The procedure: HCT116 cells are cultured in MEM alpha medium with 10% fetal calf serum and 2 mM glutamine at 37° C. and 10% CO2. The cells were detached from the bottom of the culture vessels using trypsin/EDTA, centrifuged in centrifuge tubes, taken up in fresh medium and the cell density was determined. 100,000 cells were seeded in 1 ml of culture medium per well of a 24-well cell culture plate and cultured overnight. The next day, 10 μM bleomycin (DNA intercalator and DNA double-strand breaker inducer) and the test substances in fresh culture medium were added to the cells and cultured for a further six hours. Cell lysis was then performed and the cell lysates were spotted on a 96-well ELISA plate (Sigma-Aldrich WH0005591M2: total DNA-PK, Abcam ab18192 or Epitomics EM09912: phospho-serine 2056 DNA-PK), which was blocked and coated with DNA-PK specific antibody, and incubated at 4° C. overnight. Subsequently, the 96-well ELISA plates were treated with a detection antibody (Abcam ab79444: total DNA-PK) and a streptavidin-HRP conjugate. The development of the enzymatic reaction was carried out using a chemiluminescent reagent, the chemiluminescence was measured using the Mithras LB940. The signals with the phospho-DNA-PK specific antibody were normalized to the signal with the antibody against the whole protein DNA-PKc. […] The DMSO control was used as blank.

Data set [3] addresses human phosphodiesterase-2A1 (Homo sapiens, UniProt O00408). Description: PDE2A1 assay (Cerep). The data set is classed as biochemical. The method, then: A commercially available assay was used (Cerep, catalog ref. 4071, SOP no 1C1054), which is designed to evaluate the effects of compounds on the activity of the human phosphodiesterase-2A1 quantified by measuring the formation of 5′AMP from cAMP using a human recombinant enzyme expressed in Sf9 cells.
The test compound, reference compound or water (control) are added to a buffer containing 40 mM Tris/HCl (pH 7.4), 8 mM MgCl2 and 1.7 mM EGTA/NaOH, 1.8 μM cAMP and 1 μCi [^3H]cAMP.
Thereafter, the reaction is initiated by addition of the enzyme (about 2.5 U) and the mixture is incubated for 20 min at 22° C.
For basal control measurements, the enzyme is omitted from the reaction mixture.
Following incubation SPA beads are added.
After 30 min at 22° C. under shaking, the amount of [^3H]5′AMP is quantified with a scintillation counter (Topcount, Packard).
The results are expressed as a percent inhibition of the control enzyme activity.
The standard inhibitory reference compound is EHNA (erythro-9-(2-hydroxy-3-nonyl) adenine), which is tested in each experiment at several concentrations to obtain an inhibition curve from which its IC50 value is calculated.

A short description of data set [4]: Solubility in biological buffer solutions. The class given is physicochemical. The method, then: Levels of dissolved compound/form were analysed by HPLC, with the following conditions: • Column: Chromolith RP-18e 100-3 mm • Solvent A: water/formic acid (999:1; v/v) • Solvent B: acetonitrile/formic acid (999:1; v/v) • Injection volume: 5 μL • Column temperature: 37° C. • HPLC-Gradient: […]

Setting [5] is: FaSSIF, pH 6.5, fassif, FaSSiF, pH 6.5, read-out: Solubility FaSSiF, pH 6.5.
Where [6] appears, read: FeSSIF, pH 5, fessif, FeSSiF, pH 5.0, read-out: Solubility FeSSiF, pH 5.0.
[7] abbreviates: PBS, pH 7.4, aqueous buffer, PBS, pH 7.4, read-out: Solubility PBS, pH 7.4.

Converted amounts (≈) assume the structure as drawn. Read-outs that look alike come from different tables or passages of the source.

T1 sequence (Q13535 whole entry): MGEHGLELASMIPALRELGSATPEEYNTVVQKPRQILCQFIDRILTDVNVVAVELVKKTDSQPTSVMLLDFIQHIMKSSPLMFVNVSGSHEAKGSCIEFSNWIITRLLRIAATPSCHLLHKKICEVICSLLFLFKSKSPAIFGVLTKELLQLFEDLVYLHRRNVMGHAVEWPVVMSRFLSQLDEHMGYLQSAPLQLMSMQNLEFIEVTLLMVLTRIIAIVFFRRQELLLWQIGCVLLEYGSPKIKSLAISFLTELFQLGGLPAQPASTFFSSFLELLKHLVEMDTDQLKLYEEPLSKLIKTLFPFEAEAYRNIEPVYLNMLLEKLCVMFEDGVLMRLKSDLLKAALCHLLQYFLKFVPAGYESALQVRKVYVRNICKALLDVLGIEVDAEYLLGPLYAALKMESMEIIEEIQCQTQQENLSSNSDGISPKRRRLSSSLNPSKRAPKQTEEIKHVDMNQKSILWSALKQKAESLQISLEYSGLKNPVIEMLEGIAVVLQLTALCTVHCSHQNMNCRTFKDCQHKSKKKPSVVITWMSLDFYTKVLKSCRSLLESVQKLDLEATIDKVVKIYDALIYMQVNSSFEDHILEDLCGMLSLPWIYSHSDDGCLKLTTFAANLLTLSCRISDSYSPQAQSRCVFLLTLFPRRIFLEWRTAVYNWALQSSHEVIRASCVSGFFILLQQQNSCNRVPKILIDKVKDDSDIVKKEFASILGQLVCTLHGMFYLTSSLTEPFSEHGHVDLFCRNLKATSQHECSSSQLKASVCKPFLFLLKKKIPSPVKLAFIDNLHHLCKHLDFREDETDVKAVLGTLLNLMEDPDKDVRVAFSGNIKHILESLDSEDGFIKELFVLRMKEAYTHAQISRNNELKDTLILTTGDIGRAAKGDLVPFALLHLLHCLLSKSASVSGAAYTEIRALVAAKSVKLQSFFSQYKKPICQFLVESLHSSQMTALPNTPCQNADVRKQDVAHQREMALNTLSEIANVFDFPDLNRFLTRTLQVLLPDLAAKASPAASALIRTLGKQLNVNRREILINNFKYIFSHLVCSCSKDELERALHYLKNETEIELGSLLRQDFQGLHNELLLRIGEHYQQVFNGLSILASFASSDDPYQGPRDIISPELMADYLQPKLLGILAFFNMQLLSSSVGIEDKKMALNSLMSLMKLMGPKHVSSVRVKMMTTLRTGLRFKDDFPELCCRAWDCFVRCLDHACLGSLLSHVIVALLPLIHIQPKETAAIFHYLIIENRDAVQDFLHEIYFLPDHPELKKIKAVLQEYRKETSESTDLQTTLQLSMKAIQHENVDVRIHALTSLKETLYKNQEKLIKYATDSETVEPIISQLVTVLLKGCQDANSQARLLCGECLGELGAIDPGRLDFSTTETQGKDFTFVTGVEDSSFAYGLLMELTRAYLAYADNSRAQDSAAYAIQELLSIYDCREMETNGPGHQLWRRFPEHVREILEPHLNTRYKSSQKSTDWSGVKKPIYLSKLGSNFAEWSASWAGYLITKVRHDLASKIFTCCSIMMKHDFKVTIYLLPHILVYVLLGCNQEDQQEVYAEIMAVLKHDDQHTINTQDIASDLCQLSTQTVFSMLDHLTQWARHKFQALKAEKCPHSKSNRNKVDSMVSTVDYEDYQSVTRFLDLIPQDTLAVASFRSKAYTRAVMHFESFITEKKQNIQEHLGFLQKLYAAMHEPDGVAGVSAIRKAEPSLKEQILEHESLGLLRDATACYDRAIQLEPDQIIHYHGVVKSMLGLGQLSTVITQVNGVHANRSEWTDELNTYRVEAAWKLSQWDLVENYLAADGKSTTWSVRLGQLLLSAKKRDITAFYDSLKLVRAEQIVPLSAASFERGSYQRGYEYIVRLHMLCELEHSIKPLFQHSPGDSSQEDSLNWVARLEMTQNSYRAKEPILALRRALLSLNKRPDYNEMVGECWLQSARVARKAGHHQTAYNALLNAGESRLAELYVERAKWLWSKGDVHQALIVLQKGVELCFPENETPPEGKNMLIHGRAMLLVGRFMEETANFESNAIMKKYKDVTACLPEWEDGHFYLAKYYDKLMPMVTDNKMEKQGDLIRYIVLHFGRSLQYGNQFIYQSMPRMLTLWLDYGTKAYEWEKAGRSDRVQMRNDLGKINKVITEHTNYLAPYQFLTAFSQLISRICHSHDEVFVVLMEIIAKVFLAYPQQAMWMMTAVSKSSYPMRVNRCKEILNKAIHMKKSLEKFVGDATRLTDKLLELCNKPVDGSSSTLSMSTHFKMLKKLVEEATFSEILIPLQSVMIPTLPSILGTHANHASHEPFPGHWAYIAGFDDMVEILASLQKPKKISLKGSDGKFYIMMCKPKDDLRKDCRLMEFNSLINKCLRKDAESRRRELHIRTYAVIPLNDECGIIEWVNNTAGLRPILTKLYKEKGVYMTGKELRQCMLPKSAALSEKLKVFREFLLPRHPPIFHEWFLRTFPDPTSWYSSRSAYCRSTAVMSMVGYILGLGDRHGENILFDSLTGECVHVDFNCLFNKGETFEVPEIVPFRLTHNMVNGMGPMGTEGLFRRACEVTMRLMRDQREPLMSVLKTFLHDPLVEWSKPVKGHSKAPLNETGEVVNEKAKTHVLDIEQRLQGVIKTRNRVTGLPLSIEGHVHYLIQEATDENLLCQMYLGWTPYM
T1 sequence (Q8WXE1 whole entry partner): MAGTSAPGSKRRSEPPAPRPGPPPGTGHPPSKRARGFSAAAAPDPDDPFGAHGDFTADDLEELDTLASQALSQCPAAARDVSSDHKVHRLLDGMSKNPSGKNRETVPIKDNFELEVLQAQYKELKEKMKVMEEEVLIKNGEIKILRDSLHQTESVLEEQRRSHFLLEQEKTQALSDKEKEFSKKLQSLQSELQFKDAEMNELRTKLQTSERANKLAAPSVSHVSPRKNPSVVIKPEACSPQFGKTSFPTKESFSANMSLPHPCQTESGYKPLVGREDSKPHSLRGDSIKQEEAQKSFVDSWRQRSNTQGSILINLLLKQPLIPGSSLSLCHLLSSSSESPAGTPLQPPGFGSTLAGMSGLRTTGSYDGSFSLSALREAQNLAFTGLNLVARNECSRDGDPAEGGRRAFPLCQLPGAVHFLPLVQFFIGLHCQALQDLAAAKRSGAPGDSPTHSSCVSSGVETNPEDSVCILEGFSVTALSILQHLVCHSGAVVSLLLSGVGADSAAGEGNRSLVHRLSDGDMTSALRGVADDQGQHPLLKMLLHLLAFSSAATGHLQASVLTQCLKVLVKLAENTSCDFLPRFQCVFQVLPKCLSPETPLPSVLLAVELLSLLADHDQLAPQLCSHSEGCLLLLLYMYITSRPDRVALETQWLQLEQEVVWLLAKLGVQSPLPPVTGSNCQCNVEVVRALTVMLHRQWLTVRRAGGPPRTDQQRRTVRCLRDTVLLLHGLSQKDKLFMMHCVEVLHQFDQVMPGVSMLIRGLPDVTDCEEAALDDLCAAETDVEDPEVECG

Consider `COc1cc2ncc3c(c2cc1-c1cn(C)nc1C)n(-c1c(F)cncc1OC)c(=O)n3C` (single isomer, unassigned) [Compound 1, 8-(1,3-Dimethyl-1H-pyrazol-4-yl)-1-(Sa)-(3-fluoro-5-methoxy-pyridin-4-yl)-7-methoxy-3-methyl-1,3-dihydro-imidazo[4,5-c]quinolin-2-one], for which the figures for the IC50 in data set [1], in data set [2] (Homo sapiens) and in data set [3] were 10 µM, greater than 30 µM and 2.2 µM, respectively. For the same compound, the solubility in data set [4] (setting [5]) is 242 µg/mL (≈ 540 µM); in data set [4] (setting [6]), 731 µg/mL (≈ 1630 µM); in data set [4] (setting [7]) it was roughly 100 µg/mL (≈ 223 µM).
`COc1cc2ncc3c(c2cc1-c1cn(C)nc1C)n(-c1c(F)cncc1OC)c(=O)n3C` (single isomer, unassigned) [Compound 2, 8-(1,3-Dimethyl-1H-pyrazol-4-yl)-1-(Ra)-(3-fluoro-5-methoxy-pyridin-4-yl)-7-methoxy-3-methyl-1,3-dihydro-imidazo[4,5-c]quinolin-2-one]: the IC50 in data set [1] was greater than 28 µM; in data set [2], greater than 30 µM; in data set [3], 3.9 µM. Further, the “Solubility FaSSiF, pH 6.5” value in data set [4] (FaSSiF, pH 6.5) worked out at 216 μg/ml. The “Solubility FeSSiF, pH 5.0” value in data set [4] (FeSSiF, pH 5.0) is roughly 800 μg/ml. Moreover, the “Solubility PBS, pH 7.4” value in data set [4] (PBS, pH 7.4) was roughly 100 μg/ml.
For the compound `COc1cc2ncc3c(c2cc1-c1cn(C)nc1C)n(-c1c(F)cncc1OC)c(=O)n3C` [Compound Y, 8-(1,3-dimethyl-1H-pyrazol-4-yl)-1-(3-fluoro-5-methoxypyridin-4-yl)-7-methoxy-3-methyl-1,3-dihydroimidazo[4,5-c]quinolin-2-one, reference compound], the IC50 is 5.06 µM in data set [1], greater than 30 µM in data set [2] (Homo sapiens) and 1.4 µM in data set [3]. The solubility was 52 µg/mL (≈ 116 µM) in data set [4] (setting [5]), 201 µg/mL (≈ 448 µM) in data set [4] (setting [6]) and 19 µg/mL (≈ 42.4 µM) in data set [4] (setting [7]).

By IC50 is commonly meant the concentration that inhibits the measured activity by half. A word on the solubility: it is how much of the substance goes into solution per volume.
